Laboratory results reported in patent US7745450B2, “Pyrazolo[4,3-d]pyrimidines, processes for their preparation and methods for therapy” (Institute of Experimental Botany, priority 2002, dated 2010).
Where two headings read alike, the source gives them in different places.

Tests used:
B16 = assay: In vitro cytotoxic activity, Calcein AM; type: cell-based; details: Mus musculus, B16, 72 h, three days
[1] = tested on: human melanoma cell line Arn8 (p53-responsive reporter); assay: p53-dependent transcriptional activity, β-galactosidase reporter; type: cell-based; details: concentration inducing maximum of β-galactosidase activity
Protocol: Cell lines established from the human cervical carcinoma (HeLa), human breast carcinoma (MCF-7, BT549 and BR474), human osteosarcoma (HOS), human colon carcinoma (HT29), murine fibroblasts (T221acZ) and the human melanoma (Arn8) cell lines were cultured in Dubecco's Modified Eagle Medium (DMEM) supplemented with 10% fetal bovine serum. Tested compounds were added from 50 mM stock solution in dimethyl-sulphoxide (DMSO) into the culture medium at final concentration 20 μM. Control cells received an equivalent volume of DMSO.
β-galactosidase activity of human melanoma cell line […] T221acZ (both stabile transfected with a p53-responsive reporter construct pRGCΔfoslacZ) (Frebung et al., Cancer Res., 52, 1992-6976) was determined. For the determination of total β-galactosidase activity, cells were lysed by 3 freeze-thaw cycles in 0.25 M Tris pH 7.5, and lysates were assayed as described by Sambrook et al., Mol. cloning, New York, 1989.
Effect of 25 and related compounds on activation of p53 protein was also analyzed in human melanoma cell line Arn8 and murine fibroblast cell line T22LacZ expressing β-galactosidase under control of p53 responsive promoter. Induction of wt p53 in these cells treated with 20 μM 25 (6, 12 and 24 hrs) leads to activation of responsive promoter and consequently to expression of β-galactosidase. Arn8 and T221acZ cells treated with 25 were fixed and examined microscopically for β-galactosidase activity using X-gal substrate leading to about 25% blue-colored cells compared to less than 1% of blue-colored cells in DMSO-treated control cells (data not shown). The total β-galactosidase activity in Arn8 cells was also assessed using colorimetric assay.

[2] = tested on: CEM (human lymphoblastoid leukemia); assay: In vitro cytotoxic activity, Calcein AM; type: cell-based; details: Homo sapiens, 72 h, three days
Method in brief: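 CEM cells were seeded at 10^4/well in DMEM + 10% FBS and exposed to six concentrations from 200 to 0.2 μM, in triplicate, for 3 days at 37 °C and 5% CO2. Viable cells were then measured by Calcein AM fluorescence after 1 h loading.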

normal human lymphocytes = assay: Immunosuppressive activity, 3H-thymidine incorporation in concanavalin A activated lymphocytes; type: cell-based; details: Lymphocyte, 72 hours, [3H]-TdR, read-out: Human lymphocytes ED50
Protocol: Human heparinized peripheral blood was obtained from healthy volunteers by cubital vein punction. The blood was diluted in PBS (1:3) and mononuclear cells were separated by centrifugation in Ficoll-Hypaque density gradient (Pharmacia, 1.077 g/ml) at 2200 rpm for 30 minutes. Following centrifugation, lymphocytes were washed in PBS and resuspended in cell culture medium (RMPI 1640, 2 mM glutamine, 100 U/ml penicillin, 100 μg/ml streptomycin, 10% fetal calf serum and sodium bicarbonate).
The cells were diluted at target density of 1.100.000 cells/ml were added by pipette (180 μl) into 96/well microtiter plates. Four-fold dilutions of the intended test concentration were added at time zero in 20 μl aliquots to the microtiter plate wells. Usually, test compound was evaluated at six 4-fold dilutions. In routine testing, the highest well concentration was 266.7 μM. All drug concentrations were examined in duplicates. All wells with exception of unstimulated controls were activated with 50 μl of concanavalin A (25 μg/ml). Incubations of cells with test compounds lasted for 72 hours at 37° C., in 5% CO2 atmosphere and 100% humidity. At the end of incubation period, the cells were assayed by using the [^3H]-TdR:
Cell cultures were incubated with 0.5 μCi (20 μl of stock solution […]) per well for 6 hours at 37° C. and 5% CO2. The automated cell harvester was used to lyse cells in water and adsorb the DNA onto glass-fiber filters in the format of microtiter plate. The DNA incorporated [^3H]-TdR was retained on the filter while unincorporated material passes through. The filters were dried at room temperature overnight, sealed into a sample bag with 10-12 ml of scintillant. The amount of [^3H]-TdR present in each filter (in cpm) was determined by scintillation counting in a Betaplate liquid scintillation counter. The effective dose of immunosuppressant (ED) was calculated using the following equation: ED=(CCPMdrug exposed well/mean CCPMcontrol wells)×100%.

MMK1 protein kinase = MMK1 protein kinase (Vicia faba, UniProt A0AAV1B7B8); assay: MMK1 protein kinase activity; type: biochemical
Sequence of MMK1 protein kinase (A0AAV1B7B8 1-394): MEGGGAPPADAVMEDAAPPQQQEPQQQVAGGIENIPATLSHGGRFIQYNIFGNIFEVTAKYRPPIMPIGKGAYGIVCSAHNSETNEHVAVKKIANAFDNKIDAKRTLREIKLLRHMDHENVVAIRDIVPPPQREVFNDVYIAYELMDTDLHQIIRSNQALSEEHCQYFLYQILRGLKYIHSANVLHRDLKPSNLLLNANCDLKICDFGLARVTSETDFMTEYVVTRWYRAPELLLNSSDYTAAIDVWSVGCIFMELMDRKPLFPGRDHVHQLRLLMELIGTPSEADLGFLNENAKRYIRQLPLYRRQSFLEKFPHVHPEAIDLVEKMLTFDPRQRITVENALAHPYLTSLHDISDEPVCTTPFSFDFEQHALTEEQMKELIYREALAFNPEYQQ
Method in brief: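 Plant CDK was purified from extracts on p13^suc1-beads or by anti-cdc2a-MS immunopurification, and MMK1 was immunopurified from Vicia faba extracts. Kinase activity was read as radioactivity incorporated into histone H1 or myelin basic protein, quantified by phosphoimager.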

β-adrenergic receptors = assay: Modulation of isoproterenol-induced cAMP synthesis in rat C6 glioma; type: cell-based; details: cAMP synthesis induced by 5 μM (−) isoproterenol; for IC50: read-out: I50
Protocol: Mechanism of action of novel compounds is presented on FIG. 3. Rat C6 glioma (ATCC N° CCL107) was cultivated in monolayer in serum-free chemically defined medium containing Ham's F10/minimal essential medium (1:1 vol/vol), 2 mM L-glutamine, 1% (vol/vol) minimal essential medium vitamins (100×), 1% (vol/vol) minimal essential medium nonessential amino acids (100×), 100 U/ml penicillin, 100 μg/ml streptomycin and 30 nM sodium selenide. Incubation was at 37° C. in a humidified atmosphere. Assays were performed in the logarithmic growth phase at a density of 2.5×10^5 cells/cm^2. Intracellular cAMP synthesis was induced by addition of 5 μM (−) isoproterenol. After 30 min incubation at 37° C. the medium was removed and the cellular amount of cAMP determined using the cAMP-enzyme immunoassay kit of Amersham. The I50 is determined from a dose-response curve in duplicate.
The effect of seven purine-analogs was measured after simultaneous addition with isoproterenol.

[3] = tested on: Cytokinin-dependent tobacco callus Nicotiana tabacum L. cv. Wisconsins 38; assay: Tobacco callus bioassay for cytotoxicity (herbicidal activity); type: cell-based; details: Nicotiana tabacum, 672 h
Protocol: The novel compounds have also been tested in tobacco callus bioassay for cytotoxicity (herbicidal activity) and induction of cell death. The compounds to be tested were dissolved in dimethylsulfoxide (DMSO) and the solution brought up to 10^−3 M with distilled water. […] Cytokinin-dependent tobacco callus Nicotiana tabacum L. cv. Wisconsins 38 Murashige-Skoog medium, containing per 1 liter: 4 μmol nicotinic acid, 2.4 μmol pyridoxine hydrochloride, 1.2 μmol thiamine, 26.6 μmol glycine, 1.37 μmol glutamine, 1.8 μmol myo.inositol, 30 g of sucrose, 8 g of agar, […] α-naphthylacetic acid and 0.5 μmol 6-benzylaminopurine. Sub cultivation was carried out every three weeks. Fourteen days before the bioassay, the callus tissue was transferred to the media without 6-benzylaminopurine. Compounds were tested with two different concentrations of 6-benzylaminopurine (10^−5 M and 10^−6 M). Inhibitory growth activity was determined from the increase in fresh callus weight after four weeks of cultivation. Five replicates were prepared for each concentration tested and the entire test was repeated at least twice.

cdk1/cyclin B (CDC2) = cdk1/cyclin B (CDC2) (Homo sapiens, UniProt P06493); assay: CDK inhibition assay, cdk1/cyclin B (CDC2) kinase, histone phosphorylation; type: biochemical
Sequence of cdk1/cyclin B (CDC2) (P06493 whole entry, species assumed): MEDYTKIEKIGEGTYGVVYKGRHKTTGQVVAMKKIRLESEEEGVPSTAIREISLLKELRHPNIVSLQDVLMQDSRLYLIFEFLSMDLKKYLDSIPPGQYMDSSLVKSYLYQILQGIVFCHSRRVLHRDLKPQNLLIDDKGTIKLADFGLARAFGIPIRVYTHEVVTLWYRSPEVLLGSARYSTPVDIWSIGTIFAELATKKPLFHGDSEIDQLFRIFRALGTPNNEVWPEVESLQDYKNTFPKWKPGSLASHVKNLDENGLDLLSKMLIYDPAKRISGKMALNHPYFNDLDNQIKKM
Sequence of cdk1/cyclin B (CDC2) (P14635 whole entry partner, species assumed): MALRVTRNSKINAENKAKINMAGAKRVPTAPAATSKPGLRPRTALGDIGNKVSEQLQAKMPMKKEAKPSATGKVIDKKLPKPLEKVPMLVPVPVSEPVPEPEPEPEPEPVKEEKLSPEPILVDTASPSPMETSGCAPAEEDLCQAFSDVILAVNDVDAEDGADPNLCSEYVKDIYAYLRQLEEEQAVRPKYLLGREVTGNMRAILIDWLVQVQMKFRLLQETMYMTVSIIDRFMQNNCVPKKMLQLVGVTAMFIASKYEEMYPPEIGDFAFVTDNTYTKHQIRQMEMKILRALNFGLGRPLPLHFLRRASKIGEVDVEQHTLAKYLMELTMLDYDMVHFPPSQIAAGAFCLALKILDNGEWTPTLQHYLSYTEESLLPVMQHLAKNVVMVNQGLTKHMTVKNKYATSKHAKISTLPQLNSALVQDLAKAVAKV
Method in brief: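 Human cdk1/cyclin B activity measured with 1 mg/ml histone substrate, 15 μM ATP plus [γ-32P]ATP, in HEPES pH 7.4 buffer with 10 mM MgCl2. Phosphorylation quantified by phosphorimaging; activity expressed as % of maximum, IC50 from dose-response curves by graphic analysis.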

[4] = tested on: T-lymphocyte leukemia Molt3 cell line; assay: Cell proliferation of Molt3, flow cytometric cell count; type: cell-based, human; details: 96 hours
Protocol: (§1) Cell lines: Human leukemic cell lines were obtained from the American Type Culture Collection (ATCC, Rockville, Md., USA). They were cultured in Iscove's Modified Dulbecco's Medium (IMDM) supplemented with 10% heat inactivated fetal calf serum (FCS), 200 U/ml penicillin, 200 μg/ml streptomycin and 1 μg/ml amphotericin B. Cells were cultured in a 5% CO2-95% air fully humidified incubator. For effects on clonogenic output, 1000 cells/well were plated in duplicate in methylcellulose (0.9%), supplemented with 20% FCS for 14 days.
(§2) Cells were plated at 10000 per well in 200 μl IMDM medium and incubated with 0-50 μM of the novel compounds (Tab 8), by addition of drug directly to the culture medium and incubated at 37° C. for 96 hours (Tab 8). Absolute cell number was determined by addition of a known concentration Fluoresbrite microspheres (FITC) (Polysciences, Inc.). The absolute number of cells/well was calculated as: {(total number of beads added/well)/(number of beads measured)×(number of measured cells in the gate of interest)}. All analyses were performed with a FACScan (BD), using CELLQuest software (Becton Dickinson).
(§3) Response of the myeloid leukemia KG1 and T-lymphocyte leukemia Molt3 cell lines to the cytostatic effect of the novel compounds was determined using the above-mentioned standardized bead suspension that was used to determine the absolute cell number by flow cytometric (FCM) measurement. Cells were grown in the presence of increasing concentration of the novel compounds.

[5] = tested on: PHA-stimulated lymphocytes (PBMC); assay: Proliferation of PHA-stimulated lymphocytes (PBMC), flow cytometric cell count; type: cell-based, human; details: 96 hours, IL-2
Protocol: Peripheral blood mononuclear cells (PBMC): Human peripheral blood mononuclear cells were isolated by density gradient (Ficoll-Hypaque) (LSM, ICN Biomedicals Inc.). PBMC were stimulated with 5 μg/ml phytohemaglutinin A (PHA) (Sigma) during 24-48 hours in IMDM supplemented with 10% FCS at 37° C. After washing off the PHA, PBMC were incubated with interleukin-2 (IL-2) (10 U/ml) (Genzyme).
as §2
PHA-stimulated lymphocytes (PBMC) were tested for their cytotoxicity as one of the normal counterparts of the cell lines. Cells were grown for 96 hours in the presence of IL-2 and different concentrations of the novel compounds and cell number was counted on the flow cytometer.

[6] = tested on: myeloid leukemia KG1 cell line; assay: Cell proliferation of KG1, flow cytometric cell count; type: cell-based, human; details: 96 hours, read-out: KG1 IC50
Protocol: as §1, §2, §3
To determine reversibility of the effects of the novel compounds, cells were plated at 10000 per well and exposed to 0-50 μM of the compounds for the time indicated, followed by washing in phosphate-buffered saline (PBS) (Life Technologies) and reseeded into drug-free medium for 7 additional days. An identical set of cells was plated and exposed to the drugs for 7 additional days. After 7 days (168 hours), the relative cell number was assayed by flow cytometry.

CC(C)c1n[nH]c2c(Nc3cccc(Cl)c3)nc(N[C@@H](CO)C(C)C)nc12
GI50 (B16): 1.7 µM
Max β-Gal. Activtity Conc. [1]: 7 µM
GI50 [2]: 1.2 µM
EC50 (normal human lymphocytes): 3.2 µM

CC[C@H](CO)Nc1nc(Nc2cccc(Cl)c2)c2[nH]nc(C(C)C)c2n1
Max β-Gal. Activtity Conc. [1]: 12 µM
EC50 (normal human lymphocytes): 1.8 µM

CC[C@H](CO)Nc1nc(NCc2ccc(OC)cc2)c2[nH]nc(C(C)C)c2n1
Max β-Gal. Activtity Conc. [1]: 0.8 µM

CC[C@H](CO)Nc1nc(NCc2ccccc2)c2[nH]nc(C)c2n1
IC50 (MMK1 protein kinase): 1.3 µM
GI50 (B16): 4.2 µM
Max β-Gal. Activtity Conc. [1]: 9.5 µM
GI50 [2]: 3.4 µM
EC50 (normal human lymphocytes): 9.5 µM

CC(C)c1n[nH]c2c(NCc3ccccc3)nc(NC(CO)C(C)C)nc12 (stereo not drawn)
Effect (β-adrenergic receptors; simultaneous addition, 30 min): inhibition
IC50 (β-adrenergic receptors): 25 ± 2 µM

CC[C@H](CO)Nc1nc(NCc2ccc(O)cc2)c2[nH]nc(C(C)C)c2n1
Effect: activation (β-adrenergic receptors; simultaneous addition, 30 min): 1.8-fold activation

CC(C)c1n[nH]c2c(Nc3cccc(Cl)c3)nc(NC3CCCC3)nc12
Max β-Gal. Activtity Conc. [1]: 11.5 µM

COc1ccc(CNc2nc(NC3CCCC3)nc3c(C(C)C)n[nH]c23)cc1
Max β-Gal. Activtity Conc. [1]: 21 µM

5-(hexylamino)-7-(1-phenyl-2-hydroxyethylamino)-3-isopropylpyrazolo[4,3-d]pyrimidine [Compound 98]
Effect (β-adrenergic receptors; simultaneous addition, 30 min): inhibition
IC50 (β-adrenergic receptors): 8 ± 1 µM

CC(C)c1n[nH]c2c(NCc3ccccc3)nc(NCCCN)nc12 [Compound 17, 5-(3-aminopropylamino)-7-benzylamino-3-isopropylpyrazolo[4,3-d]pyrimidine]
IC50 ([3]; read-out: 10^−5 M BAP IC50, 10^−5 M 6-benzylaminopurine, four weeks): > 50 µM
IC50 ([3]; read-out: 10^−6 M BAP IC50, 10^−6 M 6-benzylaminopurine, four weeks): 48 µM
IC50 (cdk1/cyclin B (CDC2)): 0.08 µM
IC50 (β-adrenergic receptors): 25 ± 2 µM

CCC(CO)Nc1nc(NCc2ccc(O)c(O)c2)c2[nH]nc(C(C)C)c2n1 (stereo not drawn) [Compound 47, 5-(1-ethyl-2-hydroxyethylamino)-7-(3,4-dihydroxybenzyl)amino-3-isopropylpyrazolo[4,3-d]pyrimidine]
IC50 ([4]; Homo sapiens, MOLT-3): 10 ± 1 µM
IC50 ([5]; Homo sapiens, Lymphocyte): 3 ± 1.2 µM
IC50 ([6]; Homo sapiens, KG-1): 8 ± 1 µM
IC50 (cdk1/cyclin B (CDC2); cell free system (Table 8)): 1.2 µM

CC(C)c1n[nH]c2c(NC(CO)c3ccccc3)nc(N3CCOCC3)nc12 (stereo not drawn) [Compound 85, 5-(morpholino)-7-(1-phenyl-2-hydroxyethylamino)-3-isopropylpyrazolo[4,3-d]pyrimidine]
IC50 ([4]; Homo sapiens, MOLT-3): 20 ± 1.3 µM
IC50 ([5]; Homo sapiens, Lymphocyte): 20 ± 7.7 µM
IC50 ([6]; Homo sapiens, KG-1): 28 ± 1.5 µM
IC50 (cdk1/cyclin B (CDC2); cell free system (Table 8)): 5.5 µM

CC(C)c1n[nH]c2c(SCc3ccccc3)nc(NCCCO)nc12 [Compound 145, 5-(3-hydroxypropylamino)-7-benzylthio-3-isopropylpyrazolo[4,3-d]pyrimidine]
IC50 ([4]; Homo sapiens, MOLT-3): 19 ± 2 µM
IC50 ([5]; Homo sapiens, Lymphocyte): 18 ± 1.6 µM
IC50 ([6]; Homo sapiens, KG-1): 42 ± 5 µM
IC50 (cdk1/cyclin B (CDC2); cell free system (Table 8)): > 50 µM

CC(C)c1n[nH]c2c(N[C@@H](CO)c3ccccc3)nc(NC[C@H](O)CO)nc12 [Compound 158, 5-(2,3-dihydroxypropylamino)-7-[(R,S)-(1-phenyl-2-hydroxyethyl)amino]-3-isopropylpyrazolo[4,3-d]pyrimidine]
IC50 [4]: 13.4 ± 1.4 µM
IC50 [5]: 10 ± 1 µM
IC50 [6]: 12 ± 1 µM
IC50 (cdk1/cyclin B (CDC2); cell free system (Table 8)): > 50 µM
